Earlier results, collected in patent US8258301B2, “Urotensin II receptor antagonists” (Boehringer Ingelheim International GmbH, priority 2007, dated 2012).

Conditions: patients, clinical trial

For `Cc1cc(NC(=O)NCCN2CCC(O)(Cc3ccccc3)CC2)c2ccccc2n1` [Palosuran], the “modulate the 24-hour urinary albumin excretion rate” value is given as 24.3%.
